Measurements from publication PMC6010013, “Synthesis, physiochemical property and antimicrobial activity of novel quaternary ammonium salts” (Journal of Enzyme Inhibition and Medicinal Chemistry, 2017).
Like-named read-outs stand apart in the source and are kept apart here.

Assays:
Assay type in all cases: cell-based
Aspergillus niger [1] = test: MIC, broth tube dilution; conditions: 28 ℃
Description: (§1) In this paper, antimicrobial activities of 24 QASs were detected by quantitative tests. […] Benzalkonium chloride (BZK) and chlorhexidine acetate (CA) was selected as positive controls. Representative compound POT-C12QAS (2) which synthesised and evaluated in previous work was also taken as a reference compound in MIC, MBC and cytotoxicity tests. […]
(§2) agriculture were used as target pathogens in this study, including three strains of Gram-positive bacteria (S. Aureus, α-H-tococcus, β-H-tococcus), three strains of Gram-negative bacteria (E. coli, P. aeruginosa, Proteus vulgaris) and four strains of fungi (Canidia albicans, Cytospora mandshurica, Physalospora piricola, Aspergillus niger). The antimicrobial tests were assayed, according to standard CLSI methods for antimicrobial dilution susceptibility tests to measure the minimum inhibitory concentration (MIC) and minimum bactericidal concentration (MBC)2.
(§3) A broth tube dilution method was followed to determine the MIC values for all the screened compounds against the micro-organisms, and for comparison benzalkonium chloride (BZK) and chlorhexidine acetate (CA) was used as a reference. For sample preparation, each of the test compounds and reference were dissolved in DMSO or sterile water at a concentration of 1600 μg/mL, and further dilutions of the compounds and reference in culture medium MHB (Muller-Hinton Broth) were prepared at the required quantities of 400, 200, 100 etc., down to 0.39 μg/mL. Bacterial strains and fungal strains were maintained on MHA (Muller-Hinton Agar) medium at 37℃ or 28 ℃ for 12 h or 72h, respectively. The microbial inocula were prepared by suspension in 10 mL of culture medium for colonies from culture on MHA. The cell density of each inoculum was adjusted in culture medium of a 0.5 McFarland standard (1-2×10^8 CFU/mL). The final amount applied was 10^5 CFU/mL for bacteria and fungi. The microbial inocula were added to the twofold diluted samples. One growth control tube was prepared […] the addition of the compound and one blank tube was prepared without the addition of the microorganism. MIC values were read after incubation at 37℃ or 28 ℃ for bacterial and fungal strains, respectively. After 12 h or 72h, the last tube with no growth of micro-organisms was recorded to represent the MIC value expressed in μg/ml. All experiments were carried out three times. […]

Canidia albicans [2] = test: MIC, broth tube dilution; conditions: 28 ℃
Description: as §1, §2, §3

Cytospora mandshurica [3] = test: MIC, broth tube dilution; conditions: 28 ℃
Description: as §1, §2, §3

E. coli [4] = test: MIC, broth tube dilution; conditions: 12 h, 37℃
Description: as §1, §2, §3

P. aeruginosa [5] = test: MIC, broth tube dilution; conditions: 12 h, 37℃
Description: as §1, §2, §3

Physalospora piricola [6] = test: MIC, broth tube dilution; conditions: 28 ℃
Description: as §1, §2, §3

Proteus vulgaris [7] = test: MIC, broth tube dilution; conditions: 12 h, 37℃
Description: as §1, §2, §3

S. aureus [8] = test: MIC, broth tube dilution; conditions: 12 h, 37℃
Description: as §1, §2, §3

α-H-tococcus [9] = test: MIC, broth tube dilution; conditions: 12 h, 37℃
Description: as §1, §2, §3

β-H-tococcus = test: MIC, broth tube dilution; conditions: 12 h, 37℃
Description: as §1, §2, §3

Aspergillus niger [10] = test: MBC, agar plating of dilutions without growth; conditions: 99.9% bactericidal
Description: as §1, §2, §3
(§4) was placed on agar plates in triplicate, and incubated at 37℃ or 28 ℃ for 12 h or 72h. The number of colonies on each plate was read, and the MBC was determined as the lowest concentration that achieved a 99.9% bactericidal in the agar plate.

Canidia albicans [11] = test: MBC, agar plating of dilutions without growth; conditions: 99.9% bactericidal
Description: as §1, §2, §3, §4

Cytospora mandshurica [12] = test: MBC, agar plating of dilutions without growth; conditions: 99.9% bactericidal
Description: as §1, §2, §3, §4

E. coli [13] = test: MBC, agar plating of dilutions without growth; conditions: 99.9% bactericidal
Description: as §1, §2, §3, §4

P. aeruginosa [14] = test: MBC, agar plating of dilutions without growth; conditions: 99.9% bactericidal
Description: as §1, §2, §3, §4

Physalospora piricola [15] = test: MBC, agar plating of dilutions without growth; conditions: 99.9% bactericidal
Description: as §1, §2, §3, §4

Proteus vulgaris [16] = test: MBC, agar plating of dilutions without growth; conditions: 99.9% bactericidal
Description: as §1, §2, §3, §4

S. aureus [17] = test: MBC, agar plating of dilutions without growth; conditions: 99.9% bactericidal
Description: as §1, §2, §3, §4

α-H-tococcus [18] = test: MBC, agar plating of dilutions without growth; conditions: 99.9% bactericidal
Description: as §1, §2, §3, §4

[19] = test system: human immortalised epidermal (HaCat) cell line; test: Cytotoxicity, MTT assay
Experimental: (§5) These six series of antimicrobial compounds may be applied to daily or clinical disinfectants for unbroken skin and trauma, or agricultural fungicides alternatively. Thus, their cytotoxicity for skin or body tissues are crucial. In this study, the cytotoxicity of target compounds was evaluated for human immortalised epidermal (HaCat) and human normal liver (LO2) cell line using MTT assay. […] The IC50 values of 5a, 6a, 10a, 16a, 16 b were about more than 50 μg/mL for LO2 and HaCat.
(§6) Cytotoxicity Testing with MTT Method
(§7) Human immortalized epidermal cells (HaCat) line were cultured in Dulbecco’s modified Eagle’s medium containing 10% fetal bovine serum, 1% penicillin, and 1% streptomycin at 37°C in a 5% CO2/95% air incubator MCO-15AC (SANYO). Human normal liver cells (LO2) line were cultured in Roswell Park Memorial Institute medium containing 10% fetal bovine serum, 1% penicillin, and 1% streptomycin at 37°C in a 5% CO2/95% air incubator MCO-15AC (SANYO). HaCat or LO2 cells in 96-well plate were adjusted to 1.0 × 10^5 cells mL-1 and cells were passed and cell supernatant was pour out before plating on glass slide at 37°C, 5% CO2 for 24 h. Cells were pretreated with 100 μL QAS for 24 h and cell supernatant with QAS was pour out and washed with PBS buffer system. Then, the cells were treated with the MTT solution (MTT, 3-(4,5-dimethythiazol-2-yl)-2,5-diphenyl-tetrazolium bromide, 20 μL, 5 mg/mL) for 4 h. The dark blue formazan crystal formed in the intact cells was solubilized with dimethyl sulfoxide, and absorbance at 570 nm was measured with a microplate reader (Multiskan MK3-Thermo Labsystems, USA). The results were expressed as percentage of the control value from the normal cells without treatments of QAS. […]

[20] = test system: human normal liver (LO2) cell line; test: Cytotoxicity, MTT assay
Experimental: as §5, §6, §7

[21] = 72 h, read-out: Minimal inhibitory concentration (MIC)
[22] = read-out: Minimal inhibitory concentration (MIC)
[23] = read-out: Minimal bactericidal concentration (MBC)

With C[N+](CCO)(CCO)CCCCCCCCSc1nnc(-c2ccc(C(F)(F)F)cc2)o1 [Compound 6b] as the compound, how does the MIC (Aspergillus niger [1]; [21]) read?
Its MIC is 12.5 mg/L.

What about the MIC (Canidia albicans [2]; [21]) of the same compound?
The MIC was 25 mg/L.

What about the MIC (Cytospora mandshurica [3]; Cytospora, 72 h, read-out: Minimal inhibitory concentration (MIC)) of the same compound?
The MIC was 12.5 mg/L.

And the MIC (E. coli [4]; Escherichia coli, read-out: Minimal inhibitory concentration (MIC))?
The MIC was 25 mg/L.

What about the MIC (P. aeruginosa [5]; Pseudomonas aeruginosa, read-out: Minimal inhibitory concentration (MIC)) of the same compound?
Its MIC is 50 mg/L.

And the MIC (Physalospora piricola [6]; [21])?
Its MIC is 3.12 mg/L.

And the MIC (Proteus vulgaris [7]; [22])?
Its MIC is 50 mg/L.

What about the MIC (S. aureus [8]; Staphylococcus aureus, read-out: Minimal inhibitory concentration (MIC)) of the same compound?
The MIC was 25 mg/L.

What about the MIC (α-H-tococcus [9]; [22]) of the same compound?
Its MIC is 12.5 mg/L.

What about the MIC (β-H-tococcus; [22]) of the same compound?
Its MIC is 12.5 mg/L.

And the MBC (Aspergillus niger [10]; [23])?
The MBC was 25 mg/L.

And the MBC (Canidia albicans [11]; [23])?
The MBC was 25 mg/L.

And the MBC (Cytospora mandshurica [12]; Cytospora, read-out: Minimal bactericidal concentration (MBC))?
Its MBC is 12.5 mg/L.

And the MBC (E. coli [13]; Escherichia coli, read-out: Minimal bactericidal concentration (MBC))?
The MBC was 50 mg/L.

And the MBC (P. aeruginosa [14]; Pseudomonas aeruginosa, read-out: Minimal bactericidal concentration (MBC))?
Its MBC is 50 mg/L.

What about the MBC (Physalospora piricola [15]; [23]) of the same compound?
Its MBC is 6.25 mg/L.

And the MBC (Proteus vulgaris [16]; [23])?
The MBC was 50 mg/L.

What about the MBC (S. aureus [17]; Staphylococcus aureus, read-out: Minimal bactericidal concentration (MBC)) of the same compound?
The MBC was 25 mg/L.

And the MBC (α-H-tococcus [18]; [23])?
Its MBC is 25 mg/L.

And the “Cytotoxicity IC50” value ([19]; HaCat cells, MTT, 24 h)?
The value was 32.57 ± 2.69 mg/L.

What about the “Cytotoxicity IC50” value ([20]; LO2 cells, MTT, 24 h) of the same compound?
The value was 38.72 ± 2.92 mg/L.

What does the source list for “Benzalkonium chloride [BZK, reference compound]”?
Minimal inhibitory concentration (MIC) (Aspergillus niger [1]; 72h): 3.125 mg/L; Minimal inhibitory concentration (MIC) (Canidia albicans [2]; 72h): 12.5 mg/L; Minimal inhibitory concentration (MIC) (Cytospora mandshurica [3]; 72h): 6.25 mg/L; Minimal inhibitory concentration (MIC) (E. coli [4]): 25 mg/L; Minimal inhibitory concentration (MIC) (P. aeruginosa [5]): 25 mg/L; Minimal inhibitory concentration (MIC) (Physalospora piricola [6]; 72h): 3.125 mg/L; Minimal inhibitory concentration (MIC) (Proteus vulgaris [7]): 25 mg/L; Minimal inhibitory concentration (MIC) (S. aureus [8]): 3.125 mg/L; Minimal inhibitory concentration (MIC) (α-H-tococcus [9]): 3.125 mg/L; Minimal inhibitory concentration (MIC) (β-H-tococcus): 1.56 mg/L; Minimal bactericidal concentration (MBC) (Aspergillus niger [10]): 6.25 mg/L; Minimal bactericidal concentration (MBC) (Canidia albicans [11]): 25 mg/L; Minimal bactericidal concentration (MBC) (Cytospora mandshurica [12]): 6.25 mg/L; Minimal bactericidal concentration (MBC) (E. coli [13]): 25 mg/L; Minimal bactericidal concentration (MBC) (P. aeruginosa [14]): 25 mg/L; Minimal bactericidal concentration (MBC) (Physalospora piricola [15]): 3.125 mg/L; Minimal bactericidal concentration (MBC) (Proteus vulgaris [16]): 25 mg/L; Minimal bactericidal concentration (MBC) (S. aureus [17]): 3.125 mg/L; Minimal bactericidal concentration (MBC) (α-H-tococcus [18]): 3.125 mg/L; Cytotoxicity IC50 [19]: 3.19 ± 0.26 mg/L; Cytotoxicity IC50 [20]: 2.12 ± 0.43 mg/L
